From patent publication US20240239752A1, “BICYCLIC HETEROAROMATIC INHIBITORS OF KLK5” (BioCryst Pharmaceuticals, Inc., priority 2021, published 2024)

Molecular target: T1, recombinant human KLK5 (Homo sapiens, UniProt Q9Y337)
T1 construct: purchased Novoprotein or R&D Systems C415 or 1108-SE
T1 sequence (Q9Y337 23-293): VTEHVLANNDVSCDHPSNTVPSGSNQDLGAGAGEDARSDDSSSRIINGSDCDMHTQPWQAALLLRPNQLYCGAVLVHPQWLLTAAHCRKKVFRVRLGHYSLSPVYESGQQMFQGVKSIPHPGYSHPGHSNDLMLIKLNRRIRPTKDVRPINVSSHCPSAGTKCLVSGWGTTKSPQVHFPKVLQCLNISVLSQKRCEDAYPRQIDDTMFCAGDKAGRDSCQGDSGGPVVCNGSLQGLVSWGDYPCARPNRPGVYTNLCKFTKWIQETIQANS
Assay: Kallikrein (KLK) 5 enzymatic assay (Boc-VPR-AMC fluorogenic substrate)
Format: biochemical
Conditions: recombinant human KLK5 0.1 μg/well, Boc-VPR-AMC 100 μM, pH 7.5, room temperature, 1% DMSO; tested a minimum of three times
Summary of the method: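 Fluorogenic rate assay at pH 7.5 (0.1 M NaH2PO4, 1% DMSO, room temperature), run at least three times per compound. Compound was premixed with 0.1 μg/well recombinant human KLK5 before adding 100 μM Boc-VPR-AMC; AMC release was read at ex 380/em 460 nm, and IC50 derived from inhibition of rate vs DMSO control.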

| Structure (SMILES) | IC50 [µM] |
| --- | --- |
| CC(C)n1nc(COc2ccccc2CC(=O)O)c2cc(-c3cnc4[nH]nc(N)c4c3)ccc21 [Compound 68c, 2-(2-((5-(3-amino-1H-pyrazolo[3,4-b]pyridin-5-yl)-1-isopropyl-1H-indazol-3-yl)methoxy)phenyl)acetic acid] | > 10 |
| Nc1nccc2c(-c3ccc4c(c3)c(COc3ccccc3CC(=O)O)nn4C3CCC3)cccc12 [Compound 69b, 2-(2-((5-(1-aminoisoquinolin-5-yl)-1-cyclobutyl-1H-indazol-3-yl)methoxy)phenyl)acetic acid] | < 1 |
| CC(C)n1nc(COc2ccccc2CC(=O)O)c2cc(-c3ccc4cccc(N)c4c3)ccc21 [Compound 70c, 2-(2-((5-(8-aminonaphthalen-2-yl)-1-isopropyl-1H-indazol-3-yl)methoxy)phenyl)acetic acid] | > 10 |
| COc1ccc(CC(=O)O)c(OCc2nn(C)c3ccc(-c4ccc5ccnc(N)c5c4)cc23)c1 [Compound 71d, 2-(2-((5-(1-aminoisoquinolin-7-yl)-1-methyl-1H-indazol-3-yl)methoxy)-4-methoxyphenyl)acetic acid] | < 1 |
| COc1ccc(CC(=O)O)c(OCc2nn(C)c3ccc(-c4cccc5c(N)nccc45)cc23)c1 [Compound 72b, 2-(2-((5-(1-aminoisoquinolin-5-yl)-1-methyl-1H-indazol-3-yl)methoxy)-4-methoxyphenyl)acetic acid] | < 1 |
| COc1ncc(N)c2cc(-c3ccc4c(c3)c(COc3ccccc3CC(=O)O)nn4C(C)C)ccc12 [Compound 73d, 2-(2-((5-(4-amino-1-methoxyisoquinolin-6-yl)-1-isopropyl-1H-indazol-3-yl)methoxy)phenyl)acetic acid] | > 10 |
| COc1cnc(N)c2cc(-c3ccc4c(c3)c(COc3ccccc3CC(=O)O)nn4C(C)C)ccc12 [Compound 74d, 2-(2-((5-(1-amino-4-methoxyisoquinolin-7-yl)-1-isopropyl-1H-indazol-3-yl)methoxy)phenyl)acetic acid] | 1 to 10 |
| CC(C)n1nc(COc2ccccc2CC(=O)O)c2cc(-c3ccc4cnc(N)cc4c3)ccc21 [Compound 75c, 2-(2-((5-(3-aminoisoquinolin-6-yl)-1-isopropyl-1H-indazol-3-yl)methoxy)phenyl)acetic acid] | > 10 |
| CC(C)n1nc(COc2ccccc2CC(=O)O)c2cc(-c3ccc4c(c3)C(N)CO4)ccc21 (stereo not shown) [Compound 76c, 2-(2-((5-(3-amino-2,3-dihydrobenzofuran-5-yl)-1-isopropyl-1H-indazol-3-yl)methoxy)phenyl)acetic acid] | > 10 |
| CC(C)n1nc(COc2ccccc2CC(=O)O)c2cc(-c3ccc4c(c3)C(O)CC4)ccc21 (stereo not shown) [Compound 77c, 2-(2-((5-(3-hydroxy-2,3-dihydro-1H-inden-5-yl)-1-isopropyl-1H-indazol-3-yl)methoxy)phenyl)acetic acid] | > 10 |
| Cc1ccc2c(N)nccc2c1-c1ccc2c(c1)c(COc1ccccc1CC(=O)O)nn2C(C)C [Compound 78d, 2-(2-((5-(1-amino-6-methylisoquinolin-5-yl)-1-isopropyl-1H-indazol-3-yl)methoxy)phenyl)acetic acid] | 1 to 10 |
| CC(C)n1nc(COc2ccccc2CC(=O)O)c2cc(-c3ccc4c(c3)[C@H](N)CO4)ccc21 [Compound 79c, (S)-2-(2-((5-(3-amino-2,3-dihydrobenzofuran-5-yl)-1-isopropyl-1H-indazol-3-yl)methoxy)phenyl)acetic acid] | > 10 |
| CC(C)n1nc(COc2ccccc2CC(=O)O)c2cc(-c3ccnc4c(N)nccc34)ccc21 [Compound 80d, 2-(2-((5-(8-amino-1,7-naphthyridin-4-yl)-1-isopropyl-1H-indazol-3-yl)methoxy)phenyl)acetic acid] | 1 to 10 |
| COc1c(-c2ccc3c(c2)c(COc2ccccc2CC(=O)O)nn3C(C)C)ccnc1C(=N)N [Compound 81d, 2-(2-((5-(2-carbamimidoyl-3-methoxypyridin-4-yl)-1-isopropyl-1H-indazol-3-yl)methoxy)phenyl)acetic acid] | < 1 |
| COc1cc(C(=N)N)cc(-c2ccc3c(c2)c(COc2ccccc2CC(=O)O)nn3C(C)C)c1 [Compound 82e, 2-(2-((5-(3-carbamimidoyl-5-methoxyphenyl)-1-isopropyl-1H-indazol-3-yl)methoxy)phenyl)acetic acid] | > 10 |
| COc1ccc(C(=N)N)cc1-c1ccc2c(c1)c(COc1ccccc1CC(=O)O)nn2C(C)C [Compound 83e, 2-(2-((5-(5-carbamimidoyl-2-methoxyphenyl)-1-isopropyl-1H-indazol-3-yl)methoxy)phenyl)acetic acid] | 1 to 10 |
| COc1c(C(=N)N)cccc1-c1ccc2c(c1)c(COc1ccccc1CC(=O)O)nn2C(C)C [Compound 84f, 2-(2-((5-(3-carbamimidoyl-2-methoxyphenyl)-1-isopropyl-1H-indazol-3-yl)methoxy)phenyl)acetic acid] | < 1 |
| CC(C)n1nc(COc2ccccc2CC(=O)O)c2cc(-c3cccc(-c4cn[nH]c4)c3)ccc21 [Compound 85c, 2-(2-((5-(3-(1H-pyrazol-4-yl)phenyl)-1-isopropyl-1H-indazol-3-yl)methoxy)phenyl)acetic acid] | > 10 |
| CC(C)(C)OC(=O)N1CCC(n2nc(COc3ccccc3CC(=O)O)c3cc(-c4cccc5c(N)nccc45)ccc32)C1 (stereo not shown) [Compound 86h, 2-(2-((5-(1-aminoisoquinolin-5-yl)-1-(1-(tert-butoxycarbonyl)pyrrolidin-3-yl)-1H-indazol-3-yl)methoxy)phenyl)acetic acid] | < 1 |
| CC(C)(C)OC(=O)N1CCC(n2nc(COc3ccccc3CC(=O)O)c3cc(-c4ccc5ccnc(N)c5c4)ccc32)C1 (stereo not shown) [Compound 87c, 2-(2-((5-(1-aminoisoquinolin-7-yl)-1-(1-(tert-butoxycarbonyl)pyrrolidin-3-yl)-1H-indazol-3-yl)methoxy)phenyl)acetic acid] | < 1 |
| Nc1nccc2c(-c3ccc4c(c3)c(COc3ccccc3CC(=O)O)nn4CC3CCOC3)cccc12 (stereo not shown) [Compound 88h, 2-(2-((5-(1-aminoisoquinolin-5-yl)-1-((tetrahydrofuran-3-yl)methyl)-1H-indazol-3-yl)methoxy)phenyl)acetic acid] | < 1 |
| Nc1nccc2ccc(-c3ccc4c(c3)c(COc3ccccc3CC(=O)O)nn4CC3CCOC3)cc12 (stereo not shown) [Compound 89b, 2-(2-((5-(1-aminoisoquinolin-7-yl)-1-((tetrahydrofuran-3-yl)methyl)-1H-indazol-3-yl)methoxy)phenyl)acetic acid] | < 1 |
| Nc1nccc2c(-c3ccc4c(c3)c(COc3ccccc3CC(=O)O)nn4C3CCNC3)cccc12 (stereo not shown) [Compound 90a, 2-(2-((5-(1-aminoisoquinolin-5-yl)-1-(pyrrolidin-3-yl)-1H-indazol-3-yl)methoxy)phenyl)acetic acid] | < 1 |
| Nc1nccc2ccc(-c3ccc4c(c3)c(COc3ccccc3CC(=O)O)nn4C3CCNC3)cc12 (stereo not shown) [Compound 91a, 2-(2-((5-(1-aminoisoquinolin-7-yl)-1-(pyrrolidin-3-yl)-1H-indazol-3-yl)methoxy)phenyl)acetic acid] | < 1 |
| Nc1nccc2c(-c3ccc4c(c3)c(COc3ccccc3CC(=O)O)nn4C3CCCCO3)cccc12 (stereo not shown) [Compound 92b, 2-(2-((5-(1-aminoisoquinolin-5-yl)-1-(tetrahydro-2H-pyran-2-yl)-1H-indazol-3-yl)methoxy)phenyl)acetic acid] | < 1 |
